Assay results taken from patent US12281122B1, “PI3K inhibitors” (Cogent Biosciences, Inc., priority 2023, dated 2025).

How the values were obtained:
[1] = system: T47D (PI3Kα-H1047R) cell line; experiment: HTRF phospho-AKT(S473) cell assay in T47D cells; format: cell-based, human; conditions: Homo sapiens, 2 hours compound incubation
Procedure, shortened: (§1)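 pAKT(S473) in lysates read by HTRF after a 2 h, 37 °C compound exposure (12-point 1:3 series, max 0.5% DMSO). SKBR3 (wild type, top 10 μM) received 70 ng/ml PDGF-BB during the final 15 min; T47D (H1047R, top 5 μM) was unstimulated. IC50 values derived from the dose-response.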

[2] = system: SKBR3 (PI3Kα-Wild Type) cell line; experiment: HTRF phospho-AKT(S473) cell assay in SKBR3 cells; format: cell-based, human; conditions: Homo sapiens, SK-BR-3, 2 hours compound incubation, PDGF-BB stimulated
Procedure, shortened: as §1

[3] = HTRF phospho-AKT(S473), T47D (PI3Kα-H1047R) cells
[4] = HTRF phospho-AKT(S473), SKBR3 (PI3Kα-Wild Type) cells
[5] = T47D (PI3Kα-H1047R) cells, HTRF phospho-AKT(S473)
[6] = SKBR3 (PI3Kα-Wild Type) cells, HTRF phospho-AKT(S473)

SMILES	IC50 [1, 3] [µM]	IC50 [2, 4] [µM]	IC50 [1, 5] [µM]	IC50 [2, 6] [µM]	further results
CCn1c(N2C[C@@H]3[C@H](C2)[C@H]3c2cnc(C)cn2)nc2c([C@@H](C)Nc3ccc(Cl)nc3C(=O)NS(C)(=O)=O)cc(C)cc2c1=O [Compound 572, 6-chloro-3-(((R)-1-(3-ethyl-6-methyl-2-((1R,5S,6R)-6-(5-methylpyrazin-2-yl)-3-azabicyclo[3.1.0]hexan-3-yl)-4-oxo-3,4-dihydroquinazolin-8-yl)ethyl)amino)-N-(methylsulfonyl) picolinamide]	< 0.25	1 to 5	–	–	–
Cc1cc([C@@H](C)Nc2ccc(Cl)nc2C(=O)NS(=O)(=O)c2ccncc2)c2nc(N3Cc4ccc(F)cc4C3)n(C)c(=O)c2c1 [Compound 170, (R)-6-chloro-3-((1-(2-(5-fluoroisoindolin-2-yl)-3,6-dimethyl-4-oxo-3,4-dihydroquinazolin-8-yl)ethyl)amino)-N-(pyridin-4-ylsulfonyl)picolinamide]	–	–	< 0.25	≥ 5	–
Cc1cc([C@@H](C)Nc2ccc(Cl)nc2C(=O)NS(C)(=O)=O)c2nc(N3Cc4cn([C@H](C)C(F)(F)F)nc4C3)n(C)c(=O)c2c1 (relative stereo) [Compound 224, 6-chloro-3-(((R)-1-(3,6-dimethyl-4-oxo-2-(2-((R*)-1,1,1-trifluoropropan-2-yl)-2,6-dihydropyrrolo[3,4-c]pyrazol-5(4H)-yl)-3,4-dihydroquinazolin-8-yl)ethyl)amino)-N-(methylsulfonyl) picolinamide]	–	–	< 0.25	1 to 5	–
Cc1cc([C@@H](C)Nc2ccc(Cl)nc2C(=O)NS(C)(=O)=O)c2nc(-c3ccc(-c4nc(C)no4)nc3)n(C)c(=O)c2c1 [Compound 843, (R)-6-chloro-3-((1-(3,6-dimethyl-2-(6-(3-methyl-1,2,4-oxadiazol-5-yl)pyridin-3-yl)-4-oxo-3,4-dihydroquinazolin-8-yl)ethyl)amino)-N-(methylsulfonyl) picolinamide]	–	–	–	–	IC50 ([1]; T47D (PI3Kα-H1047R) cell line, phospho-AKT(S473) HTRF): 0.25 to 0.5 µM; IC50 ([2]; SKBR3 (PI3Kα-Wild Type) cell line, phospho-AKT(S473) HTRF): 1 to 5 µM
Cc1cc([C@@H](C)Nc2ccc(Cl)nc2C(=O)NS(C)(=O)=O)c2nc(-c3ccc(O[C@@H]4CCNCC4(F)F)nc3)n(C)c(=O)c2c1 [Compound 333, 6-chloro-3-(((R)-1-(2-(6-(((R)-3,3-difluoropiperidin-4-yl)oxy)pyridin-3-yl)-3,6-dimethyl-4-oxo-3,4-dihydroquinazolin-8-yl)ethyl)amino)-N-(methylsulfonyl) picolinamide]	–	–	< 0.25	1 to 5	–
Cc1cc([C@@H](C)Nc2ccc(Cl)nc2C(=O)NS(C)(=O)=O)c2nc(N3C[C@H]4C[C@@H]3CN4c3cnc(C)c(F)c3)n(C)c(=O)c2c1 [Compound 664, 6-chloro-3-(((R)-1-(2-((1R,4R)-5-(5-fluoro-6-methylpyridin-3-yl)-2,5-diazabicyclo [2.2.1]heptan-2-yl)-3,6-dimethyl-4-oxo-3,4-dihydroquinazolin-8-yl)ethyl)amino)-N-(methylsulfonyl) picolinamide]	0.5 to 1	≥ 5	–	–	–
Cc1cc([C@@H](C)Nc2ccc(Cl)nc2C(=O)NS(C)(=O)=O)c2nc(N3C[C@@H]4[C@@H](COc5ccnn5C)[C@@H]4C3)n(C)c(=O)c2c1 [Compound 341, 6-chloro-3-(((R)-1-(3,6-dimethyl-2-((1R,5S,6R)-6-(((1-methyl-1H-pyrazol-5-yl)oxy)methyl)-3-azabicyclo[3.1.0]hexan-3-yl)-4-oxo-3,4-dihydroquinazolin-8-yl)ethyl)amino)-N-(methylsulfonyl) picolinamide]	–	–	< 0.25	1 to 5	–
Cc1cc([C@@H](C)Nc2ccc(Cl)nc2C(=O)NS(C)(=O)=O)c2nc(N3C[C@H]4C[C@@H]3CN4c3ncc(Cl)cn3)n(C)c(=O)c2c1 [Compound 666, 6-chloro-3-(((R)-1-(2-((1R,4R)-5-(5-chloropyrimidin-2-yl)-2,5-diazabicyclo [2.2.1]heptan-2-yl)-3,6-dimethyl-4-oxo-3,4-dihydroquinazolin-8-yl)ethyl)amino)-N-(methylsulfonyl) picolinamide]	0.25 to 0.5	≥ 5	–	–	–
Cc1cc([C@@H](C)Nc2ccc(Cl)nc2C(=O)NS(C)(=O)=O)c2nc(N3Cc4cnn(CC(F)(F)F)c4C3)n(C3CC3)c(=O)c2c1 [Compound 736, (R)-6-chloro-3-((1-(3-cyclopropyl-6-methyl-4-oxo-2-(1-(2,2,2-trifluoroethyl)-4,6-dihydropyrrolo[3,4-c]pyrazol-5(1H)-yl)-3,4-dihydroquinazolin-8-yl)ethyl)amino)-N-(methylsulfonyl) picolinamide]	0.5 to 1	≥ 5	–	–	–
Cc1cc([C@@H](C)Nc2ccc(Cl)nc2C(=O)NS(C)(=O)=O)c2nc(N3C[C@@H]4[C@H](C3)[C@H]4c3n[nH]cc3C)n(C)c(=O)c2c1 [Compound 651, 6-chloro-3-(((R)-1-(3,6-dimethyl-2-((1R,5S,6R)-6-(4-methyl-1H-pyrazol-3-yl)-3-azabicyclo[3.1.0]hexan-3-yl)-4-oxo-3,4-dihydroquinazolin-8-yl)ethyl)amino)-N-(methylsulfonyl) picolinamide]	0.25 to 0.5	1 to 5	–	–	–
CCn1c(N2C[C@@H]3[C@H](C2)[C@H]3c2ccn(C)n2)nc2c([C@@H](C)Nc3ccc(Cl)nc3C(=O)NS(C)(=O)=O)cc(C)cc2c1=O [Compound 432, 6-chloro-3-(((R)-1-(3-ethyl-6-methyl-2-((1R,5S,6R)-6-(1-methyl-1H-pyrazol-3-yl)-3-azabicyclo[3.1.0]hexan-3-yl)-4-oxo-3,4-dihydroquinazolin-8-yl)ethyl)amino)-N-(methylsulfonyl) picolinamide]	–	–	< 0.25	1 to 5	–
Cc1cc([C@@H](C)Nc2ccc(Cl)nc2C(=O)NS(C)(=O)=O)c2nc(-c3cnc(N4CCOCC4)nc3)n(C)c(=O)c2c1 [Compound 814, (R)-6-chloro-3-((1-(3,6-dimethyl-2-(2-morpholinopyrimidin-5-yl)-4-oxo-3,4-dihydroquinazolin-8-yl)ethyl)amino)-N-(methylsulfonyl) picolinamide]	< 0.25	1 to 5	–	–	–

Second part, led by results:

IC50 [1, 3] [µM]	IC50 [2, 4] [µM]	IC50 [1, 5] [µM]	IC50 [2, 6] [µM]	SMILES	further results
< 0.25	≥ 5	–	–	Cc1cc([C@@H](C)Nc2ccc(Cl)nc2C(=O)NS(C)(=O)=O)c2nc(N3CCC(c4ncc(C)nc4C)CC3)n(C)c(=O)c2c1 [Compound 525, (R)-6-chloro-3-((1-(2-(4-(3,5-dimethylpyrazin-2-yl)piperidin-1-yl)-3,6-dimethyl-4-oxo-3,4-dihydroquinazolin-8-yl)ethyl)amino)-N-(methylsulfonyl) picolinamide]	–
–	–	< 0.25	1 to 5	Cc1cc([C@@H](C)Nc2ccc(Cl)nc2C(=O)NS(C)(=O)=O)c2nc(N3CCC(c4cccnc4C)CC3)n(C)c(=O)c2c1 [Compound 437, (R)-6-chloro-3-((1-(3,6-dimethyl-2-(4-(2-methylpyridin-3-yl)piperidin-1-yl)-4-oxo-3,4-dihydroquinazolin-8-yl)ethyl)amino)-N-(methylsulfonyl) picolinamide]	–
< 0.25	1 to 5	–	–	Cc1cc([C@@H](C)Nc2ccc(Cl)nc2C(=O)NS(C)(=O)=O)c2nc(N3CCC(c4c(F)cnn4C4CC4)CC3)n(C)c(=O)c2c1 [Compound 455, (R)-6-chloro-3-((1-(2-(4-(1-cyclopropyl-4-fluoro-1H-pyrazol-5-yl)piperidin-1-yl)-3,6-dimethyl-4-oxo-3,4-dihydroquinazolin-8-yl)ethyl)amino)-N-(methylsulfonyl) picolinamide]	–
< 0.25	1 to 5	–	–	Cc1cc([C@@H](C)Nc2ccc(Cl)nc2C(=O)NS(C)(=O)=O)c2nc(N3C[C@@H]4[C@H](C3)[C@H]4c3cc(C4CC4)[nH]n3)n(C)c(=O)c2c1 [Compound 524, 6-chloro-3-(((R)-1-(2-((1R,5S,6R)-6-(5-cyclopropyl-1H-pyrazol-3-yl)-3-azabicyclo[3.1.0]hexan-3-yl)-3,6-dimethyl-4-oxo-3,4-dihydroquinazolin-8-yl)ethyl)amino)-N-(methylsulfonyl) picolinamide]	–
–	–	< 0.25	≥ 5	Cc1cc([C@@H](C)Nc2ccc(Cl)nc2C(=O)NS(C)(=O)=O)c2nc(N3CCC(n4c(C)nc5ccccc54)CC3)n(C)c(=O)c2c1 [Compound 268, (R)-6-chloro-3-((1-(3,6-dimethyl-2-(4-(2-methyl-1H-benzo[d]imidazol-1-yl)piperidin-1-yl)-4-oxo-3,4-dihydroquinazolin-8-yl)ethyl)amino)-N-(methylsulfonyl) picolinamide]	–
< 0.25	≥ 5	–	–	Cc1cc([C@@H](C)Nc2ccc(Cl)nc2C(=O)NS(C)(=O)=O)c2nc(N3CCC(c4nc(C)n(C)n4)CC3)n(C)c(=O)c2c1 [Compound 459, (R)-6-chloro-3-((1-(2-(4-(1,5-dimethyl-1H-1,2,4-triazol-3-yl)piperidin-1-yl)-3,6-dimethyl-4-oxo-3,4-dihydroquinazolin-8-yl)ethyl)amino)-N-(methylsulfonyl) picolinamide]	–
0.25 to 0.5	≥ 5	–	–	Cc1cc([C@@H](C)Nc2ccc(Cl)nc2C(=O)NS(C)(=O)=O)c2nc(N3CC[C@H](N(C)c4ncc(F)cn4)C3)n(C)c(=O)c2c1 [Compound 739, 6-chloro-3-(((R)-1-(2-((S)-3-((5-fluoropyrimidin-2-yl)(methyl)amino)pyrrolidin-1-yl)-3,6-dimethyl-4-oxo-3,4-dihydroquinazolin-8-yl)ethyl)amino)-N-(methylsulfonyl) picolinamide]	–
